The source of these data is paper PMC4155405 (Nature communications, 2014).

Like-named read-outs stand apart in the source and are kept apart here.

Data set [1] has as its system recombinant Wuhan95 (H3N2) PB1-V43I virus. Type of data set: cell-based, influenza A virus A/Wuhan/359/95 (H3N2).
Another data set is described as follows: in vitro. Particulars: dog.
Data set [2] relates to recombinant virus Wuhan95 (H3N2). In kind it is cell-based, influenza A virus A/Wuhan/359/95 (H3N2).
Data set [3] has as its system Wuhan95 (H3N2) wild-type virus. In kind it is cell-based, influenza A virus A/Wuhan/359/95 (H3N2).
Data set [4] concerns Wuhan95 (H3N2) PB1-V43I virus. In kind it is cell-based, influenza A virus A/Wuhan/359/95 (H3N2).

For orientation: EC50 means the midpoint of the concentration-response curve. With `NC(=O)c1nc(F)c[nH]c1=O` [favipiravir], in data set [1], the “fold increase in EC50, PB1-V43I mutant versus wild-type H3N2 virus” value was found to be 2.24 fold. Besides, the EC50 in data set [1] (read-out: EC50 (favipiravir, virus titre in MDCK cells)) was 24.6 µM.
Compound `Nc1nc2c(ncn2[C@@H]2O[C@H](CO)[C@@H](O)[C@H]2O)c(=O)[nH]1` [guanosine] displayed a CC50 in “in vitro” of 122 ± 0.11 µM.
As to `NC(=O)c1ncn([C@@H]2O[C@H](CO)[C@@H](O)[C@H]2O)n1` [ribavirin, 1-[(2R,3R,4S,5R)-3,4-dihydroxy-5-(hydroxymethyl)oxolan-2-yl]-1H-1,2,4-triazole-3-carboxamide], in data set [2], the genomic mutation frequency is 15.74 per 10^4 nucleotide sequenced. In addition, in data set [1], the “fold higher virus titre of PB1-V43I virus compared to wild-type recombinant Wuhan95 virus” value is given as 10.8 fold. Moreover, the EC50 in data set [1] (read-out: EC50 (ribavirin, virus titre in MDCK cells)) was determined as 73.5 µM. Also, the “fold higher mutational frequency of wild-type virus than PB1-V43I virus” value in data set [3] was 1.36 fold. In addition, the figures for the “mutational frequency in the HA gene” value in data set [3] and in data set [4] were 5.53 mutations per 10^4 nucleotides and 4.08 mutations per 10^4 nucleotides, respectively. Moreover, the CC50 in “in vitro” worked out at 352 ± 0.04 µM.
